Measurements reported in patent US8361496B2, “Phospholipid gel compositions for drug delivery and methods of treating conditions using same” (Idexx Laboratories Inc., priority 2004, dated 2013).

Experiment: Clinical study 5.16: serum concentration of tilmicosin after oral administration
Format: in vivo
Conditions: oral 20 mg/kg, gelatin capsule with the gel of Example 5.14
Description: Tilmicosin was orally administered to a dog using the pharmaceutical composition of Example 5.14. A sufficient amount of the gel of example 5.14 was placed in a gelatin capsule to provide a dose of 20 mg/kg to the dog. The dog was then orally administered the gelatin capsule containing the tilmicosin pharmaceutical composition of Example 5.14. Blood was then withdrawn from the dog at various time intervals and the serum concentration of tlmicosin determined by the following procedure: (i) A C-18 cartridge (commercially available from Waters Corp. of Milford, Mass.) was connected to a 20 mL syringe and to a single diaphragm vacuum pump (commercially available from Gast Manufacturing Inc. of Benton Harbor, Mich.). […]

## CC[C@H]1OC(=O)C[C@@H](O)[C@H](C)[C@@H](O[C@@H]2O[C@H](C)[C@@H](O)[C@H](N(C)C)[C@H]2O)[C@@H](CCN2C[C@H](C)C[C@H](C)C2)C[C@@H](C)C(=O)/C=C/C(C)=C/[C@@H]1CO[C@@H]1O[C@H](C)[C@@H](O)[C@@H](OC)[C@H]1OC [Tilmicosin]
  time for which tilmicosin is provided in the blood of the dog: at least 48 h
